Source: US20130254944A1, “Herbicide Tolerant Soybeans and Methods of Use” (PIONEER HI BRED INTERNATIONAL INC, priority 2012, published 2013)

Experiments:
Assay type in all cases: in vivo
[1] = tested on: soybean having the Als2 mutation; test: Greenhouse postemergence test of ALS-inhibiting herbicides, soybean with Als2 mutation; details: for Avg response (% phytotoxicity), Trait Als2: Table 2; for EC10, Als2: rate of herbicide estimated to cause 10% phytotoxic response, loglogistic fit
Protocol: (§1) Soybean lines having wild type als1 & 2 genes, the Als1 mutation, the Als2 mutation, or both the Als1 and Als2 mutations were evaluated for their response to various herbicides. Two seeds from each line were planted into 4-inch pots containing Redi-Earth potting mix (Sun Gro Horticulture Canada Ltd. 52130 RR65, Seba Beach, Alberta TOE 2B0), with two replications planted for each treatment. Pots were placed in flats at 15 pots/flat, and the resulting plants were grown in a greenhouse environment supplemented with lighting (16 hr photoperiod) for the duration of the test. Selected herbicides representing the mode of action that inhibits the acetolactate synthase enzyme, also known as the acetohydroxyacid synthase enzyme, were applied postemergence to soybean when soybean plants were at the V2 growth stage, which is the stage at which the first two trifoliolate leaves were expanded.
(§2) Eleven active ingredients representing the five chemical families with herbicidal activity on the acetolactate synthase enzyme were tested. These herbicides can cause a phytotoxic response in wild type soybean plants. The five chemical families tested were sulfonylaminocarbonyltriazolinone (also known as triazolinone), imidazolinone, sulfonylurea, pyrimidinylthiobenzoate, and triazolopyrimidine. Application rates ranged from 0.5 times to eight times the currently labeled application rate for each active ingredient with spray application volume at 30 gallons/acre. The application rates tested were 0.5×, 1×, 2×, 4× and 8× the label rate for each herbicide. Herbicidal active ingredients were applied as formulated materials dispersed in water containing 0.25% nonionic surfactant (Trend® 90).
(§3) The test was evaluated by visually scoring plant phenotype 14 days after the herbicides were applied. Controls consisted of soybean plants of the same variety that received no herbicide treatments for each of all the varieties tested. Soybean response was recorded on a zero to 100 visual scale in which zero is no phytotoxic response and 100 is plant death fourteen days after the herbicides were applied. Soybean response (percent phytotoxicity) to postemergence applications of herbicides inhibiting the acetolactate synthase enzyme test results are shown in Table 1.
(§4) Results in Table 1 were evaluated using the isobole method for analyzing interactions. […] Here the biologically active agents that are being assessed for interaction (synergy) are gene mutations in soybean. The effectiveness of the genes in providing improved tolerance to ALS-inhibiting herbicides was assessed by applying increasing doses of herbicides to each soybean line with its mutation(s).
(§5) An isobole reduces a dose response surface in three dimensional space to a two dimensional plot by fixing a defined response level (e.g., 50% response). The isobole plot is a graph in the Cartesian plane with a straight line connecting the isoeffective rates of the individual components of the combination. This straight line represents expected responses for zero interactive combinations. The isoeffective rate used to create the isobole is often the EC50, the rate estimated to elicit 50% response, but other ECx values can be used. Since the isobole method is based on the potency of the components of the combination, an experimental design testing a range of rates expected to elicit the full range of responses (e.g., 0 to maximum response) is best. (Ferry et al. (2005) 2005 Conference on Applied Statistics in Agriculture Proceedings pp 33-50, Manhattan, Kans., Kansas State Univ.; Green and Streibig (1993) Herbicide Mixtures, pp 117-134 in Herbicide Bioassays, Streibig and Hudsk Eds, CRC, Boca Raton, Fla.).
(§6) Loglogistic dose response curves were fit to percent phytotoxicity response data using log 10 of dose (McCullagh and Nelder (1989) Generalized Linear Models, Chapman & Hall, London). Curves were fit using the logit link with normal errors. […]

[2] = tested on: soybean having the Als1 mutation; test: Greenhouse postemergence test of ALS-inhibiting herbicides, soybean with Als1 mutation; details: for Avg response (% phytotoxicity), Trait Als1: Table 2; for EC10, Als1: rate of herbicide estimated to cause 10% phytotoxic response, loglogistic fit
Protocol: as §1, §2, §3, §4, §5, §6

[3] = tested on: soybean having both the Als1 and Als2 mutations; test: Greenhouse postemergence test of ALS-inhibiting herbicides and isobole analysis, soybean with Als1 and Als2 mutations; details: for Avg response (% phytotoxicity), Trait Als1 + Als2: Table 2; for EC10, Als1 + Als2: rate of herbicide estimated to cause 10% phytotoxic response, loglogistic fit
Protocol: as §1, §2, §3, §4, §5, §6

wild type soybean = test: Greenhouse postemergence test of ALS-inhibiting herbicides, wild type soybean
Protocol: as §1, §2, §3

[4] = 35 g ai/ha postemergence at V2, scored 14 days after application
[5] = 70 g ai/ha postemergence at V2, scored 14 days after application
[6] = 140 g ai/ha postemergence at V2, scored 14 days after application
[7] = 280 g ai/ha postemergence at V2, scored 14 days after application
[8] = 560 g ai/ha postemergence at V2, scored 14 days after application
[9] = 17.5 g ai/ha postemergence at V2, scored 14 days after application

| SMILES | Soybean response (percent phytotoxicity), Als2 [1, 4] [%] | Avg response (% phytotoxicity), Trait Als2 ([1]; 35 g ai/ha) [%] | Soybean response (percent phytotoxicity), Als2 [1, 5] [%] | Avg response (% phytotoxicity), Trait Als2 ([1]; 70 g ai/ha) [%] | Soybean response (percent phytotoxicity), Als2 [1, 6] [%] | Avg response (% phytotoxicity), Trait Als2 ([1]; 140 g ai/ha) [%] | Soybean response (percent phytotoxicity), Als2 [1, 7] [%] | Avg response (% phytotoxicity), Trait Als2 ([1]; 280 g ai/ha) [%] | EC10, Als2 [1] [g ai/ha] | Soybean response (percent phytotoxicity), Als1 [2, 4] [%] | Avg response (% phytotoxicity), Trait Als1 ([2]; 35 g ai/ha) [%] | Soybean response (percent phytotoxicity), Als1 [2, 5] [%] | Avg response (% phytotoxicity), Trait Als1 ([2]; 70 g ai/ha) [%] | Soybean response (percent phytotoxicity), Als1 [2, 6] [%] | Avg response (% phytotoxicity), Trait Als1 ([2]; 140 g ai/ha) [%] | Soybean response (percent phytotoxicity), Als1 [2, 7] [%] | Avg response (% phytotoxicity), Trait Als1 ([2]; 280 g ai/ha) [%] | EC10, Als1 [2] [g ai/ha] | Soybean response (percent phytotoxicity), Als1 + Als2 [3, 4] [%] | Avg response (% phytotoxicity), Trait Als1 + Als2 ([3]; 35 g ai/ha) [%] | also measured |
| --- | --- | --- | --- | --- | --- | --- | --- | --- | --- | --- | --- | --- | --- | --- | --- | --- | --- | --- | --- | --- | --- |
| CCc1cnc(C2=NC(C)(C(C)C)C(=O)N2)c(C(=O)O)c1 (stereo not shown) [Imazethapyr] | 0 | 0 | 0 | 0 | 0 | 0 | 0 | 0 | 560.00 | 0 | 0 | 0 | 0 | 0 | 0 | 10 | 10 | 333.22 | 0 | 0 | Soybean response (percent phytotoxicity), Als2 [1, 8]: 5%; Avg response (% phytotoxicity), Trait Als2 ([1]; 560 g ai/ha): 10%; Soybean response (percent phytotoxicity), Als1 [2, 8]: 20%; Avg response (% phytotoxicity), Trait Als1 ([2]; 560 g ai/ha): 20%; Soybean response (percent phytotoxicity), Als1 + Als2 [3, 5]: 0%; Avg response (% phytotoxicity), Trait Als1 + Als2 ([3]; 70 g ai/ha): 0%; Soybean response (percent phytotoxicity), Als1 + Als2 [3, 6]: 0%; Avg response (% phytotoxicity), Trait Als1 + Als2 ([3]; 140 g ai/ha): 0%; Soybean response (percent phytotoxicity), Als1 + Als2 [3, 7]: 5%; Avg response (% phytotoxicity), Trait Als1 + Als2 ([3]; 280 g ai/ha): 5%; Soybean response (percent phytotoxicity), Als1 + Als2 [3, 8]: 10%; Avg response (% phytotoxicity), Trait Als1 + Als2 ([3]; 560 g ai/ha): 10%; EC10, Als1 + Als2 [3]: 549.93 g ai/ha; Soybean response (percent phytotoxicity), Wild type (wild type soybean; [4]): 0%; Soybean response (percent phytotoxicity), Wild type (wild type soybean; [5]): 0%; Soybean response (percent phytotoxicity), Wild type (wild type soybean; [6]): 0%; Soybean response (percent phytotoxicity), Wild type (wild type soybean; [7]): 15%; Soybean response (percent phytotoxicity), Wild type (wild type soybean; [8]): 20% |
| COc1cc(OC)nc(NC(=O)NS(=O)(=O)c2ncccc2C(=O)N(C)C)n1 [Nicosulfuron] | 0 | 0 | 0 | 0 | 20 | 20 | 35 | 35 | 105.60 | 0 | 0 | 0 | 0 | 5 | 5 | 25 | 25 | 187.47 | 0 | 0 | Soybean response (percent phytotoxicity), Als2 [1, 9]: 0%; Avg response (% phytotoxicity), Trait Als2 ([1]; 17.5 g ai/ha): 0%; Soybean response (percent phytotoxicity), Als1 [2, 9]: 0%; Avg response (% phytotoxicity), Trait Als1 ([2]; 17.5 g ai/ha): 0%; Soybean response (percent phytotoxicity), Als1 + Als2 [3, 9]: 0%; Avg response (% phytotoxicity), Trait Als1 + Als2 ([3]; 17.5 g ai/ha): 0%; Soybean response (percent phytotoxicity), Als1 + Als2 [3, 5]: 0%; Avg response (% phytotoxicity), Trait Als1 + Als2 ([3]; 70 g ai/ha): 0%; Soybean response (percent phytotoxicity), Als1 + Als2 [3, 6]: 0%; Avg response (% phytotoxicity), Trait Als1 + Als2 ([3]; 140 g ai/ha): 0%; Soybean response (percent phytotoxicity), Als1 + Als2 [3, 7]: 5%; Avg response (% phytotoxicity), Trait Als1 + Als2 ([3]; 280 g ai/ha): 5%; EC10, Als1 + Als2 [3]: >280 g ai/ha; Soybean response (percent phytotoxicity), Wild type (wild type soybean; [9]): 0%; Soybean response (percent phytotoxicity), Wild type (wild type soybean; [4]): 10%; Soybean response (percent phytotoxicity), Wild type (wild type soybean; [5]): 20%; Soybean response (percent phytotoxicity), Wild type (wild type soybean; [6]): 45%; Soybean response (percent phytotoxicity), Wild type (wild type soybean; [7]): 65% |
